Test results published in US20150140043A1, “IMMUNOMODULATORY METHODS USING NOTCH AGONISTS” (INSTITUT NATIONAL DE LA SANTE DE LA RECHERCHE MEDICAL …, priority 2012, published 2015).

B1: DL-1: recombinant NOTCH ligand Delta-like 1, used coated as DL-1-Fc (SEQ ID NO: 8) (protein, listed as Homo sapiens)
chain: MGSRCALALAVLSALLCQVWSSGVFELKLQEFVNKKGLLGNRNCCRGGAGPPPCACRTFFRVCLKHYQASVSPEPPCTYGSAVTPVLGVDSFSLPDGGGADSAFSNPIRFPFGFTWPGTFSLIIEALHTDSPDDLATENPERLISRLATQRHLTVGEEWSQDLHSSGRTDLKYSYRFVCDEHYYGEGCSVFCRPRDDAFGHFTCGERGEKVCNPGWKGPYCTEPICLPGCDEQHGFCDKPGECKCRVGWQGRYCDECIRYPGCLHGTCQQPWQCNCQEGWGGLFCNQDLNYCTHHKPCKNGATCTNTGQGSYTCSCRPGYTGATCELGIDECDPSPCKNGGSCTDLENSYSCTCPPGFYGKICELSAMTCADGPCFNGGRCSDSPDGGYSCRCPVGYSGFNCEKKIDYCSSSPCSNGAKCVDLGDAYLCRCQAGFSGRHCDDNVDDCASSPCANGGTCRDGVNDFSCTCPPGYTGRNCSAPVSRCEHAPCHNGATCHERGHRYVCECARGYGGPNCQFLLPELPPGPAVVDLTEKLEGQGGPFPWVAVCAGVILVLMLLLGCAAVVVCVRLRLQKHRPPADPCRGETETMNNLANCQREKDISVSIIGATQIKNTNKKADFHGDHSADKNGFKARYPAVDYNLVQDLKGDDTAVRDAHSKRDTKCQPQGSSGEEKGTPTTLRGGEASERKRPDSGCSTSKDTKYQSVYVISEEKDECVIATEV

Assays:
Format in all cases: cell-based, human
[1] = test system: CD4+CD25- T cell proliferation; assay: Sensitizing assay: cells pre-incubated with NOTCH ligands, washed, then cultured with anti-CD3 with or without Treg; settings: for Percentage of inhibition of cell proliferation by Treg: CD4+CD25- T cells pre-exposed overnight to ligand (5 μg/ml), Treg ratio 1:8, 5 days anti-CD3, mean of 4 experiments; for Effect of exposure of Treg to ligand on Treg capacity to suppress CD4+CD25- proliferation: Treg exposed to ligand, anti-CD3 mAbs, data not shown
Experimental: FIG. 1: NOTCH signalling is involved in Treg mediated inhibition of anti-CD3 stimulated CD4^+CD25^− T cell proliferation • A) Various ratio of CD4^+CD25^− T cells and CD4^+CD25^high T cells were cultured for 5 days in coated wells with anti-CD3 (1 μg/ml) in the presence or not of inhibitor of g-secretase (GSI 10 μM). Percentages of inhibition were calculated from the raw data using the equations: 1—(mean cpm of co-culture wells divided by mean cpm of CD4^+CD25^− cells cultured alone)×100. The data represent the mean±SEM and are representative of 5 independent experiments. * indicates P<0.05. • B) CD4^+CD25^−T cells were cultured for 18 hours in coated wells with anti-CD3 and NOTCH ligands (5 μg/ml) or IgG control (5 μg/ml). Then, T cells were washed and incubated for 5 days in coated wells with anti-CD3 in the absence or presence of Treg at ratio 1:8. The data represent the mean±SEM of inhibition of T cell proliferation of 5 independent experiments.
(§1) Peripheral blood mononuclear cells were separated by Ficoll-Hypaque centrifugation (Amersham Biosciences) from buffy coats obtained from healthy blood donors (EFS, Créteil). CD4^+ CD25^− T cells and CD4^+CD25^high T cells were isolated using a CD4^+ T cell enrichment column and a human CD4^+CD25^+ Treg isolation kit purchased from Miltenyi Biotec. CD4^+CD25^− cells and CD4^+CD25^+ cells were enriched to greater than 95% purity. Cells were plated in media at a concentration of 1.25×10^5 to 5×10^5 cells per ml in a 96-well round-bottom plates coated with 1 μg/ml of anti-CD3 (UCHT1) and 5 μg/ml of NOTCH Ligand (DL-1-Fc, DL-4-Fc and Jagged-1-Fc are a generous Gift from Dr. Sakano).
A total of 2.5×10^4 CD4^+CD25^− T cells were cultured with various ratios of CD4^+CD25^high cells and 1 μg/ml of anti-CD3 for 5 days, in the presence or absence of 10 μm of the gamma-secretase inhibitor Compound E. A total of […] [^3H] thymidine (Amersham Pharmacia) was added to the wells during the last 16 hours of culture. The cells were then harvested and assessed for [^3H] thymidine incorporation using a liquid scintillation counter. Results were expressed as mean cpm of quadriplicate culture wells.
(§2) Percentage of inhibition was calculated as follows: 1−(mean cpm of co-culture wells divided by mean cpm of CD4^+CD25^− cells cultured alone)×100.
In sensitizing assays CD4^+CD25^− and CD4^+CD25^high were pre-incubated during 16 hours on coated NOTCH Ligand. Cells were also collected, washed and incubated alone or with Treg and stimulated as described above. Some experiments were performed in the presence of anti-TGF-β or IgG control (2.5 μg/ml). […]

[2] = test system: CD4+CD25- T cell proliferation; assay: Coculture of effector T cells and Treg at low ratio on immobilized NOTCH ligands, with or without anti-TGF-β; design: Mean inhibition of T cell proliferation / Mean inhibition of T cell proliferation in the presence of anti-TGF-β mAbs: unit of the concentration uncertain
Experimental: (§3) FIG. 2: NOTCH suppresses the proliferation of CD4^+CD25^− T cells through TGF-β • A) CD4^+CD25^−T cells were cultured for 5 days in coated wells with anti-CD3 and NOTCH ligands (5 μg/ml) or IgG control (5 μg/ml) in the presence of Treg at ratio 1:16. Anti-TGF-β or IgG control mAbs (2.5 μg/ml) were added at the beginning of the co-culture. The data represent the mean±SEM. * indicates P<0.05. • B) CD4^+CD25^−T cells were cultured for 5 days in coated wells with anti-CD3 and NOTCH ligands (5 μg/ml) or IgG control (5 μg/ml). Low dose of TGF-β (0.1 ng/ml) was added. The data represent the mean±SEM.
as §1, §2
In sensitizing assays CD4^+CD25^− and CD4^+CD25^high were pre-incubated during 16 hours on coated NOTCH Ligand. Cells were also collected, washed and incubated alone or with Treg and stimulated as described above. Some experiments were performed in the presence of anti-TGF-β or IgG control (2.5 μg/ml).
The implication of NOTCH1 on effector T cell responses in the presence of Treg through a TGF-β signalling mechanism has not yet been elucidated. To test this, a coculture experiments of effector T cells and Treg at a low ratio (ratio 1:16) in the presence of immobilized NOTCH ligands DL1, DL4 and Jagged-1 or Ig controls at […] was performed. […]

[3] = test system: CD4+CD25- T cell proliferation; assay: Sensitization of CD4+CD25- T cells to low-dose TGF-β (anti-CD3 plus NOTCH ligands, no Treg); settings: anti-CD3 plus ligand (5 μg/ml), TGF-β 0.1 ng/ml, 5 days
Experimental: as §3
as §1, with “Sakano). […]” for “Sakano).”

| Molecule | Percentage of inhibition of cell proliferation by Treg [1] [%] | Effect of exposure of Treg to ligand on Treg capacity to suppress CD4+CD25- proliferation [1] | Mean inhibition of T cell proliferation in the presence of anti-TGF-β mAbs ([2]; coculture with Treg at ratio 1:16, immobilized ligand at 5 µg/mL, anti-TGF-β 2.5 µg/mL added at the beginning of the culture) [%] | Mean inhibition of T cell proliferation ([2]; coculture with Treg at ratio 1:16, immobilized ligand at 5 µg/mL, no anti-TGF-β) [%] | Percentage of inhibition of proliferation in the presence of TGF-β [3] [%] | Effect of anti-TGF-β on coculture of Treg and ligand-treated effector T cells ([2]; Treg ratio 1:16, anti-TGF-β 2.5 μg/ml) |
| --- | --- | --- | --- | --- | --- | --- |
| Jagged-1: recombinant NOTCH ligand Jagged-1, used coated as Jagged-1-Fc (SEQ ID NO: 5) | 65 | did not modify the Treg capacity | 19.3 | 65 | 87.8 | – |
| B1 | 64.8 | did not modify the Treg capacity | – | – | 42.9 | did not affect |
